Results taken from patent US9896445B2, “Heterocyclic inhibitors of ERK1 and ERK2 and their use in the treatment of cancer” (Asana Biosciences, LLC, priority 2015, dated 2018).

Tests used:
ERK1 = molecular target: T1, ERK1 (Homo sapiens, UniProt P27361); assay: ERK1 HTRF (biochemical) assay
T1 construct: purchased Jubilant Biosys
Description: ERK1 and ERK2 HTRF (Biochemical) Assays
These assays employed a homogeneous time resolved fluorescence (HTRF) technique. […] The plate was incubated at room temperature for 60 min with shaking. […] The IC50 values (half maximal inhibitory concentration values) were subsequently determined using a sigmoidal dose-response curve (variable slope) in GraphPad Prism® 5 software.

ERK2 = molecular target: T2, ERK2 (Homo sapiens, UniProt P28482); assay: ERK2 HTRF (biochemical) assay
T2 construct: purchased Jubilant Biosys
Method in brief: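 Readout was time-resolved FRET between europium anti-phospho-MBP and streptavidin-APC after a 60-min room-temperature kinase step. That step used ERK2 (25 nM in enzyme mix), biotinylated MBP peptide (1 uM) and ATP (24 uM) from the substrate mix, in pH 7.5 Tris buffer.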

T1 sequence (P27361 whole entry): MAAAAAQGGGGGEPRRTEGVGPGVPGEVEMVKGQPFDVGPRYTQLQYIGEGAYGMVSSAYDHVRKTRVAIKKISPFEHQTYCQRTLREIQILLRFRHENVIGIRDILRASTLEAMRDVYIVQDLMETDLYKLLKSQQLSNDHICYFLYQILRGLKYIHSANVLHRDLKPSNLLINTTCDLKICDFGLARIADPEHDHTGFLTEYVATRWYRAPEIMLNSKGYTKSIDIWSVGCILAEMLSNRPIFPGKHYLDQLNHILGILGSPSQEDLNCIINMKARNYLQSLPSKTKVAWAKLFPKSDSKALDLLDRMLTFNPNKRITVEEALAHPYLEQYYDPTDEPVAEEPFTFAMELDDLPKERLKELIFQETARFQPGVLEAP
T2 sequence (P28482 whole entry): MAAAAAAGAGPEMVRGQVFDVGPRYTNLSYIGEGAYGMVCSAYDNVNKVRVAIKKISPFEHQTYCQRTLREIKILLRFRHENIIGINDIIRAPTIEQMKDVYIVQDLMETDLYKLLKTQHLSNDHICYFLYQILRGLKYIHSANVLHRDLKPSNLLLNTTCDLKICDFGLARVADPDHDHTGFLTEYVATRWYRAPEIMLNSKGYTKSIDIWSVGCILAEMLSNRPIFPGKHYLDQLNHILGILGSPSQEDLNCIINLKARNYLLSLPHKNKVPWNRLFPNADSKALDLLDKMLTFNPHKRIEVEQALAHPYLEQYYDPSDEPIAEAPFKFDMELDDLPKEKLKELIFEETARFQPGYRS

IC50 (ERK1; HTRF biochemical assay)	IC50 (ERK2; HTRF biochemical assay)	IC50 (ERK1; HTRF)	IC50 (ERK2; HTRF)	Compound
0.1 to 0.5 µM	≤ 0.05 µM	–	–	Cc1cnc(N[C@H]2CCOC2)nc1-n1cnc(C(=O)NCc2cccc(C#N)c2)c1 [Example 310, (S)-N-(3-cyano-benzyl)-1-(5-methyl-2-((tetrahydrofuran-3-yl)amino)-pyrimidin-4-yl)-1H-imidazole-4-carboxamide]
< 0.05 µM	≤ 0.05 µM	–	–	Cc1cnc(Nc2ccc(F)cc2Cl)nc1-n1cnc(C(=O)NCc2cccc(Cl)c2CO)c1 [Example 329, N-(3-chloro-2-(hydroxymethyl)-benzyl)-1-(2-((2-chloro-4-fluoro-phenyl)amino)-5-methylpyrimidin-4-yl)-1H-imidazole-4-carboxamide]
< 0.05 µM	≤ 0.05 µM	–	–	Cc1cnc(NC2CCOCC2)nc1-n1cnc(C(=O)NC(C)(C)c2cccc(Cl)c2CO)c1 [Example 341, N-(2-(3-chloro-2-(hydroxymethyl)-phenyl)propan-2-yl)-1-(5-methyl-2-((tetrahydro-2H-pyran-4-yl)amino)-pyrimidin-4-yl)-1H-imidazole-4-carboxamide]
–	–	< 0.05 µM	≤ 0.05 µM	COc1cc(C(=O)N2CCOCC2)c(F)cc1Nc1ncc(C)c(-n2ccc(C(=O)NC(CO)c3cccc(Cl)c3)c2)n1 (centres unmarked) [Compound 181, N-(1-(3-chlorophenyl)-2-hydroxyethyl)-1-(2-((5-fluoro-2-methoxy-4-(morpholine-4-carbonyl)phenyl)amino)-5-methyl-pyrimidin-4-yl)-1H-pyrrole-3-carboxamide]
–	–	0.1 to 0.5 µM	0.5 to 2.5 µM	CC[C@@H](CO)Nc1ncc(C)c(-n2ccc(C(=O)N[C@@H](CO)c3cccc(Cl)c3)c2)n1 [Compound 218, N-((R)-1-(3-chlorophenyl)-2-hydroxyethyl)-1-(2-(((S)-1-hydroxy-butan-2-yl)amino)-5-methylpyrimidin-4-yl)-1H-pyrrole-3-carboxamide]
–	–	< 0.05 µM	≤ 0.05 µM	Cc1cnc(NC2CCOCC2)nc1-n1cnc(C(=O)NC(CO)c2ccsc2)c1 (centres unmarked) [Compound 234, N-(2-hydroxy-1-(thiophen-3-yl)ethyl)-1-(5-methyl-2-((tetrahydro-2H-pyran-4-yl)amino)-pyrimidin-4-yl)-1H-imidazole-4-carboxamide]
–	–	< 0.05 µM	≤ 0.05 µM	Cc1cnc(NC2CCOCC2)nc1-n1cnc(C(=O)N[C@H](CNCc2ccc[nH]2)c2cccc(Cl)c2)c1 [Example 306, (S)-N-(2-(((1H-pyrrol-2-yl)-methyl)amino)-1-(3-chlorophenyl)-ethyl)-1-(5-methyl-2-((tetrahydro-2H-pyran-4-yl)amino)-pyrimidin-4-yl)-1H-imidazole-4-carboxamide]
–	–	< 0.05 µM	≤ 0.05 µM	Cc1cnc(NC2CCNC2)nc1-n1ccc(C(=O)N[C@H](CO)c2cccc(Cl)c2)c1 (stereo partly drawn) [Compound 174, N-((S)-1-(3-chlorophenyl)-2-hydroxyethyl)-1-(5-methyl-2-(pyrrolidin-3-ylamino)pyrimidin-4-yl)-1H-pyrrole-3-carboxamide]
–	–	0.1 to 0.5 µM	0.1 to 0.5 µM	Cc1cnc(NC2CCOCC2)nc1-n1cnc(C(=O)N[C@@H](CO)c2cccc(Cl)c2)c1 [Compound 217, (R)-N-(1-(3-chlorophenyl)-2-hydroxyethyl)-1-(5-methyl-2-((tetrahydro-2H-pyran-4-yl)amino)-pyrimidin-4-yl)-1H-imidazole-4-carboxamide]

Further lines, the molecule ahead of its results:

Compound	IC50 (ERK1; HTRF biochemical assay)	IC50 (ERK2; HTRF biochemical assay)	IC50 (ERK1; HTRF)	IC50 (ERK2; HTRF)
Cc1cnc(Nc2ccc(F)cc2Cl)nc1-n1ccc(C(=O)N[C@H](CO)c2cccc(Cl)c2)c1 [Compound 29, (S)-1-(2-((2-Chloro-4-fluorophenyl)amino)-5-methylpyrimidin-4-yl)-N-(1-(3-chlorophenyl)-2-hydroxyethyl)-1H-pyrrole-3-carboxamide]	–	–	< 0.05 µM	≤ 0.05 µM
Cc1cnc(NC2CC2)nc1-n1cc(NC(=O)NC(CO)c2cccc(Cl)c2)cn1 (centres unmarked) [Compound 28, 1-(1-(3-chloro-phenyl)-2-hydroxy-ethyl)-3-(1-(2-(cyclopropyl-amino)-5-methylpyrimidin-4-yl)-1H-pyrazol-4-yl)urea]	–	–	0.05 to 0.1 µM	0.05 to 0.1 µM
COc1cc(Nc2ncc(C)c(-n3ccc(C(=O)NC(CO)c4ccccc4)c3)n2)cc(OC)c1OC (centres unmarked) [Compound 121, N-(2-hydroxy-1-phenylethyl)-1-(5-methyl-2-((3,4,5-trimethoxyphenyl)amino)pyrimidin-4-yl)-1H-pyrrole-3-carboxamide]	–	–	< 0.05 µM	≤ 0.05 µM
CC(=O)NCC(NC(=O)c1ccn(-c2nc(Nc3ccc4c(c3)OC(F)(F)O4)ncc2C)c1)c1cccc(Cl)c1 (centres unmarked) [Compound 158, N-(2-acetamido-1-(3-chlorophenyl)-ethyl)-1-(2-((2,2-difluorobenzo[d] [1,3]dioxol-5-yl)-amino)-5-methyl-pyrimidin-4-yl)-1H-pyrrole-3-carboxamide]	–	–	0.1 to 0.5 µM	0.05 to 0.1 µM
O=C(Nc1cnn(-c2nc(NC3CC3)ncc2F)c1)N[C@H](CO)c1cccc(Cl)c1 [Compound 30, (S)-1-(1-(3-chlorophenyl)-2-hydroxyethyl)-3-(1-(2-(cyclopropyl-amino)-5-fluoro-pyrimidin-4-yl)-1H-pyrazol-4-yl)urea]	–	–	< 0.05 µM	≤ 0.05 µM
O=C(NC(CO)c1ccccc1)c1ccn(-c2ccnc(Nc3ccc(F)cc3Cl)c2)c1 (centres unmarked) [Compound 82, 1-(2-((2-chloro-4-fluorophenyl)amino)pyridin-4-yl)-N-(2-hydroxy-1-phenylethyl)-1H-pyrrole-3-carboxamide]	–	–	0.05 to 0.1 µM	≤ 0.05 µM
CN1CCN(c2ccc(Nc3nccc(-n4cc(NC(=O)N[C@H](CO)c5cccc(Cl)c5)cn4)n3)cc2)CC1 [Compound 22, (S)-1-(1-(3-chlorophenyl)-2-hydroxyethyl)-3-(1-(2-((4-(4-methylpiperazin-1-yl)-phenyl)amino)pyrimidin-4-yl)-1H-pyrazol-4-yl)urea]	–	–	0.1 to 0.5 µM	0.05 to 0.1 µM
Cc1cnc(Nc2ccc3c(c2)OCO3)nc1-n1ccc(C(=O)NC(CO)c2ccc(F)cc2)c1 (centres unmarked) [Compound 172, 1-(2-(benzo[d][1,3]dioxol-5-ylamino)-5-methylpyrimidin-4-yl)-N-(1-(4-fluorophenyl)-2-hydroxyethyl)-1H-pyrrole-3-carboxamide]	–	–	< 0.05 µM	≤ 0.05 µM
Cc1cnc(Nc2ccc3c(c2)OC(F)(F)O3)cc1-n1ccc(C(=O)NC(CO)c2ccccc2)c1 (centres unmarked) [Compound 80, 1-(2-((2,2-difluorobenzo[d] [1,3]dioxol-5-yl)-amino)-5-methyl-pyridin-4-yl)-N-(2-hydroxy-1-phenyl-ethyl)-1H-pyrrole-3-carboxamide]	–	–	< 0.05 µM	≤ 0.05 µM
C#Cc1cccc(Nc2nccc(-n3cc(NC(=O)N[C@H](CO)c4cccc(Cl)c4)cn3)n2)c1 [Compound 38, (S)-1-(1-(3-chlorophenyl)-2-hydroxyethyl)-3-(1-(2-((3-ethynyl-phenyl)amino)pyrimidin-4-yl)-1H-pyrazol-4-yl)urea]	–	–	< 0.05 µM	≤ 0.05 µM
Cc1cnc(NC2CCOCC2)nc1-n1cnc(C(=O)N[C@@H](CN)c2cccc(Cl)c2)c1 (single isomer, unassigned) [Compound 225b]	–	–	< 0.05 µM	≤ 0.05 µM
O=C(N[C@H](CO)c1cccc(Cl)c1)c1ccn(-c2ccnc(Nc3ccc(F)cc3Cl)n2)c1 [Compound 112, (S)-1-(2-((2-chloro-4-fluorophenyl)-amino)pyrimidin-4-yl)-N-(1-(3-chlorophenyl)-2-hydroxyethyl)-1H-pyrrole-3-carboxamide]	–	–	< 0.05 µM	≤ 0.05 µM
Cc1cnc(Nc2ccc3c(c2)OCO3)nc1-n1ccc(C(=O)NC(CO)c2cccnc2)c1 (centres unmarked) [Compound 103, 1-(2-(benzo[d][1,3]dioxol-5-ylamino)-5-methylpyrimidin-4-yl)-N-(2-hydroxy-1-(pyridin-3-yl)ethyl)-1H-pyrrole-3-carboxamide]	–	–	0.1 to 0.5 µM	≤ 0.05 µM
Cc1cnc(Nc2ccc(F)cc2Cl)nc1-n1ccc(C(=O)N[C@H](CO)c2cccc(Cl)c2)c1 [Compound 57, (S)-1-(2-((2-chloro-4-fluorophenyl)-amino)-5-methyl-pyrimidin-4-yl)-N-(1-(3-chlorophenyl)-2-hydroxyethyl)-1H-pyrrole-3-carboxamide]	–	–	< 0.05 µM	≤ 0.05 µM
Cc1cnc(Nc2ccc(F)cc2Cl)nc1-n1ccc(C(=O)NC(CO)c2ccccc2)c1 (centres unmarked) [Compound 32, 1-(2-((2-chloro-4-fluorophenyl)amino)-5-methyl-pyrimidin-4-yl)-N-(2-hydroxy-1-phenylethyl)-1H-pyrrole-3-carboxamide]	–	–	< 0.05 µM	≤ 0.05 µM
COc1c(F)cccc1Nc1ncc(C)c(-n2ccc(C(=O)NC(CO)c3cccc(Cl)c3)c2)n1 (centres unmarked) [Compound 143]	–	–	< 0.05 µM	≤ 0.05 µM
Cc1cnc(Nc2ccc3c(c2)OCO3)nc1-n1ccc(C(=O)NC(CO)c2ccccc2)c1 (centres unmarked) [Compound 47, 1-(2-(benzo[d][1,3]dioxol-5-ylamino)-5-methylpyrimidin-4-yl)-N-(2-hydroxy-1-phenylethyl)-1H-pyrrole-3-carboxamide]	–	–	< 0.05 µM	≤ 0.05 µM
Cc1cnc(NC2CCOC2)nc1-n1ccc(C(=O)N[C@H](CO)c2ccc(F)c(Cl)c2)c1 (stereo partly drawn) [Compound 157, N-((S)-1-(3-chloro-4-fluorophenyl)-2-hydroxyethyl)-1-(5-methyl-2-((tetrahydrofuran-3-yl)amino)pyrimidin-4-yl)-1H-pyrrole-3-carboxamide]	–	–	< 0.05 µM	≤ 0.05 µM
Cc1cnc(Nc2ccc(F)cc2Cl)nc1-n1cc(C(=O)NC(CO)c2cccc(Cl)c2)cn1 (centres unmarked) [Compound 45, 1-(2-((2-chloro-4-fluorophenyl)amino)-5-methyl-pyrimidin-4-yl)-N-(1-(3-chlorophenyl)-2-hydroxyethyl)-1H-pyrazole-4-carboxamide]	–	–	< 0.05 µM	≤ 0.05 µM
